How the values were obtained:
[1] = In vitro stability of [111In]In-radiocomplexes in cell culture media, human serum and PBS at 37 °C (HPLC); assay type: in vitro ADME
Description: (§1) Given the limited effect of the pegylated linker on the plasmatic half-life, we focused our successive in vitro stability studies and lipophilicity measurements on the two non-pegylated derivatives [^111In]In-DOTA-Tz and [^111In]In-DOTAGA-Tz. The lipophilicity was evaluated by determination of their partition coefficient log Po/w using the shake-flask method. […] In HS the stability was very good up to 2 h of incubation, but after 4 h of incubation, the degradation started to be quite important with 50 and 30% of the compound degraded for [^111In]In-DOTA-Tz and [^111In]In-DOTAGA-Tz, respectively. […] Taken together, excellent stability of the two [^111In]In-radiocomplexes was observed both in CCM and HS at 37°C for incubation times up to 2 h.
[111In]In-Radiocomplexes: In vitro and in vivo stability
radiolabelled compound dissolved in different media. For the evaluation of the stability in PBS, Cell
times the volume of the desired medium.
The radiocomplexes incubated in Human
The urine samples were centrifuged
during six days by ITLC analysis.

[2] = Biodistribution of [111In]In-radiocomplexes in healthy mice; assay type: in vivo
Description: We performed a biodistribution study of the four [^111In]In-radiocomplexes in healthy mice to determine the clearance rate from systemic blood circulation and the tissue/organ distribution over time. […] The urinary tract was identified as the main excretory pathway since the highest % I.D./g values were found in the kidneys for all the radiocomplexes, associated to rapid radioactivity excretion both at 15 min and 1 h p.i. […] page 9: from whole animal body. Blood samples were taken by cardiac puncture at sacrifice. […] The animals were kept under […] volume of approximate 390 ± 190 mm3. […] […] carried out on groups of 8 mice (n = 4). […] The animals were weighed and dissected.

[3] = In vivo stability: HPLC analysis of urine of injected mice; settings: mouse urine, 1 h p.i.
Description: To assess the in vivo stability of the radiocomplexes, samples of blood and urine were collected from the mice injected with the compounds and analyzed by HPLC.
Blood samples from mice injected with the tested radiocomplexes, collected at sacrifice time, were
centrifuged, the serum separated and treated with ethanol (1:2 proportion) to precipitate the proteins
and the supernatant was analyzed by HPLC for stability evaluation. The urine samples were centrifuged
at 3000 rpm for 10 min and the supernatant was also analyzed by HPLC.

[4] = Lipophilicity, octanol-water partition coefficient by shake-flask method; assay type: physicochemical; settings: 1-octanol / PBS pH 7.4
Description: as §1, with “h. […]” for “h.”
Lipophilicity Determination
After phase separation, aliquots

PC3 xenografts = assay: In vivo click (pre-targeting) biodistribution of [111In]In-DOTA-Tz in PC3-xenografts bearing mice pretargeted with TCO-PEG4-AR; design: Biodistribution: Blood: dose or concentration left out as unconfirmed; settings: 1 h p.i.
Description: from whole animal body. Blood samples were taken by cardiac puncture at sacrifice. Tissue samples
Biodistribution in PC3 bearing mice
Membrane Matrix (BD Sciences) under anaesthesia with 2% isoflurane. The animals were kept under
volume of approximate 390 ± 190 mm3. Animals were allocated into treatment groups using a complete
carried out on groups of 8 mice (n = 4).
At appropriate time points (15 min,
Immediately after injection,
DOTA-Tz (0.1mL, 50 – 75 µCi µCi).
assumed to be due to total excretion. The animals were weighed and dissected. Then, tissues of interest
radioactivity and weighted.

[5] = In Vivo Click reaction: PC3 xenograft mice pretargeted with TCO-PEG4-AR (4 h prior administration, 1 nM)
[6] = In Vivo Click reaction: PC3 xenograft mice pretargeted with TCO-PEG4-AR (4 h prior administration, 1 nM), listed as [^111In]In-DOTA-Tz
[7] = in vivo click chemistry, pretargeted with TCO-PEG4-AR

For `O=C([O-])CN1CCN(CC(=O)[O-])CCN(CC(=O)NCc2ccc(-c3nncnn3)cc2)CCN(CC(=O)[O-])CC1.[111In+3]` [[111In]In-DOTA-Tz], the “stability in PBS” value ([1]; PBS, 24 h at 37°C) was greater than 85%, the “level of degradation in CCM” value ([1]; cell culture media, 37°C, after 24 h) was 70% and the “stability in CCM” value ([1]; cell culture media, 37°C, first 4 h of incubation) was “very good stability”. The “stability in HS” value ([1]; human serum, 37°C, 24 h of incubation) was “almost completely degraded”, the “compound degraded in HS” value ([1]; human serum, 37°C, after 4 h of incubation) was 50% and the “stability in HS” value ([1]; human serum, 37°C, up to 2 h of incubation) was “very good”. The “Biodistribution: Blood” value ([2]; 15 min p.i.) was 2.5 ± 1.4 % I.D./g, the “Biodistribution: Bone” value ([2]; 15 min p.i.) was 1.0 ± 0.7 % I.D./g and the “Biodistribution: Heart” value ([2]; 15 min p.i.) was 0.8 ± 0.5 % I.D./g. The “Biodistribution: Intestine” value ([2]; 15 min p.i.) was 0.3 ± 0.2 % I.D./g, the “Biodistribution: Kidney” value ([2]; 15 min p.i.) was 5.2 ± 3.3 % I.D./g and the “Biodistribution: Liver” value ([2]; 15 min p.i.) was 2.3 ± 0.8 % I.D./g. The “Biodistribution: Lung” value ([2]; 15 min p.i.) was 1.8 ± 0.9 % I.D./g, the “Biodistribution: Muscle” value ([2]; 15 min p.i.) was 1.1 ± 0.9 % I.D./g and the “Biodistribution: Pancreas” value ([2]; 15 min p.i.) was 0.4 ± 0.2 % I.D./g. For the same compound, the “Biodistribution: Spleen” value ([2]; 15 min p.i.) was 0.8 ± 0.2 % I.D./g, the “Biodistribution: Stomach” value ([2]; 15 min p.i.) was 0.3 ± 0.2 % I.D./g and the Excretion ([2]; 15 min p.i.) was 58.3 ± 25.3 % I.D. For the same compound, the “Biodistribution: Blood” value ([2]; 1 h p.i.) was 0.32 ± 0.07 % I.D./g, the “Biodistribution: Bone” value ([2]; 1 h p.i.) was 0.12 ± 0.03 % I.D./g and the “Biodistribution: Heart” value ([2]; 1 h p.i.) was 0.11 ± 0.02 % I.D./g. The “Biodistribution: Intestine” value ([2]; 1 h p.i.) was 0.05 ± 0.01 % I.D./g, the “Biodistribution: Kidney” value ([2]; 1 h p.i.) was 1.6 ± 0.3 % I.D./g and the “Biodistribution: Liver” value ([2]; 1 h p.i.) was 0.29 ± 0.09 % I.D./g. For the same compound, the “Biodistribution: Lung” value ([2]; 1 h p.i.) was 0.29 ± 0.03 % I.D./g, the “Biodistribution: Muscle” value ([2]; 1 h p.i.) was 0.08 ± 0.01 % I.D./g and the “Biodistribution: Pancreas” value ([2]; 1 h p.i.) was 0.06 ± 0.01 % I.D./g. The “Biodistribution: Spleen” value ([2]; 1 h p.i.) was 0.09 ± 0.01 % I.D./g, the “Biodistribution: Stomach” value ([2]; 1 h p.i.) was 0.09 ± 0.05 % I.D./g and the Excretion ([2]; 1 h p.i.) was 91.8 ± 1.0 % I.D. For the same compound, the Excretion ([2]; 1 h p.i., listed as [^111In]In-DOTA-Tz) was “above 90 % I.D”, the “in vivo stability / metabolization (urine HPLC)” value [3] was “eliminated without undergoing any metabolization or degradation” and the “log Po/w” value [4] was −1.60 ± 0.13. The “Biodistribution: Blood” value (PC3 xenografts; In Vivo Click reaction: PC3 xenograft mice pretargeted with TCO-PEG4-AR (4 h prior administration)) was 0.28 ± 0.09 % I.D./g, the “Biodistribution: Bone” value (PC3 xenografts; [5]) was 0.21 ± 0.09 % I.D./g and the “Biodistribution: Heart” value (PC3 xenografts; [5]) was 0.12 ± 0.04 % I.D./g. For the same compound, the “Biodistribution: Intestine” value (PC3 xenografts; [5]) was 0.12 ± 0.04 % I.D./g, the “Biodistribution: Kidney” value (PC3 xenografts; [5]) was 1.5 ± 0.3 % I.D./g and the “Biodistribution: Liver” value (PC3 xenografts; [5]) was 0.3 ± 0.1 % I.D./g. For the same compound, the “Biodistribution: Lung” value (PC3 xenografts; [5]) was 0.26 ± 0.06 % I.D./g, the “Biodistribution: Muscle” value (PC3 xenografts; [5]) was 0.15 ± 0.11 % I.D./g and the “Biodistribution: Spleen” value (PC3 xenografts; [5]) was 0.11 ± 0.04 % I.D./g. For the same compound, the “Biodistribution: Stomach” value (PC3 xenografts; [5]) was 0.09 ± 0.06 % I.D./g, the “Biodistribution: Tumour” value (PC3 xenografts; [5]) was 0.78 ± 0.54 % I.D./g and the “Biodistribution: Kidney” value (PC3 xenografts; [6]) was 1.5 % I.D./g. For the same compound, the “Biodistribution: Tumour” value (PC3 xenografts; [6]) was 0.78 % I.D./g, the tumor/blood ratio (PC3 xenografts; [7]) was 2.8 and the tumor/muscle ratio (PC3 xenografts; [7]) was 5.2.

From PMC8225959, “Clickable Radiocomplexes With Trivalent Radiometals for Cancer Theranostics: In vitro and in vivo Studies” (Frontiers in Medicine, 2021)
